Source: patent US5728724A, “Benzothiophene compounds” (Eli Lilly and Company, priority 1996, dated 1998)

Key:
Type in all cases: in vivo, Sprague Dawley rats
[1] = test system: uterus of ovariectomized (OVX) rats; assay: Uterine weight in ovariectomized rats (post-menopausal model, agonist activity)
Protocol: (§1) In the examples illustrating the methods, a post-menopausal model was used in which effects of different treatments upon circulating lipids were determined.
(§2) Seventy-five day old female Sprague Dawley rats (weight range of 200 to 225g) were obtained from Charles River Laboratories (Portage, Mich.). The animals were either bilaterally ovariectomized (OVX) or exposed to a Sham surgical procedure at Charles River Laboratories, and then shipped after one week. Upon arrival, they were housed in metal hanging cages in groups of 3 or 4 per cage and had ad libitum access to food calcium content approximately 0.5%) and water for one week. Room temperature was maintained at 22.2°±1.7° C. with a minimum relative humidity of 40%. The photoperiod in the room was 12 hours light and 12 hours dark.
(§3) Dosing Regimen Tissue Collection. After a one week acclimation period (therefore, two weeks post-OVX) daily dosing with test compound was initiated. […] Animals were dosed daily for 4 days. Following the dosing regimen, animals were weighed and anesthetized with a ketamine: Xylazine (2:1, V:V) mixture and a blood sample was collected by cardiac puncture. The animals were then sacrificed by asphyxiation with CO2, the uterus was removed through a midline incision, and a wet uterine weight was determined.

[2] = test system: Uterine Eosinophil Peroxidase (EPO); assay: Uterine Eosinophil Peroxidase (EPO) Assay in ovariectomized rats; set-up: key: max velocity of A450 increase over a 15 s interval; settings: 0.1 mg/kg, oral, daily for 4 days, OVX rats
Protocol: as §1, §2, §3
Uterine Eosinophil Peroxidase (EPO) Assay. Uteri were kept at 4° C. until time of enzymatic analysis. The uteri were then homogenized in 50 volumes of 50 mM Tris buffer (pH-8.0) containing 0.005% Triton X-100. Upon addition of 0.01% hydrogen peroxide and 10 mM O-phenylenediamine (final concentrations) in Tris buffer, increase in absorbance was monitored for one minute at 450 nm. The presence of eosonophils in the uterus is an indication of estrogenic activity of a compound. The maximal velocity of a 15 second interval was determined over the initial, linear portion of the reaction curve.

[3] = test system: Serum Cholesterol; assay: Serum cholesterol analysis in ovariectomized rats; settings: OVX rats
Protocol: as §1, §2, §3
Cholesterol Analysis. Blood samples were allowed to clot at room temperature for 2 hours, and serum was obtained following centrifugation for 10 minutes at 3000 rpm. Serum cholesterol was determined using a Boehringer Mannheim Diagnostics high performance cholesterol assay. Briefly the cholesterol was oxidized to cholest-4-en-3-one and hydrogen peroxide. The hydrogen peroxide was then reacted with phenol and 4-aminophenazone in the presence of peroxidase to produce a p-quinone imine dye, which was read spectrophotemetrically at 500 nm. Cholesterol concentration was then calculated against a standard curve. The entire assay was automated using a Biomek Automated Workstation.

[4] = test system: femur density of ovariectomized rats; assay: Osteoporosis Test (bone density of ovariectomized rats); settings: OVX rats, daily for 35 days
Excerpt: Following the General Preparation Procedure, infra, the rats or treated daily for 35 days (6 rats per treatment group) and sacrificed by carbon dioxide asphyxiation on the 36th day. The 35 day time period is sufficient to allow maximal reduction in bone density, measured as described herein. At the time of sacrifice, the uteri are removed, dissected free of extraneous tissue, and the fluid contents are expelled before determination of wet weight in order to confirm estrogen deficiency associated with complete ovariectomy. […] The uteri are then placed in 10% neutral buffered formalin to allow for subsequent histological analysis. The right femurs are excised and digitilized x-rays generated and analyzed by an image analysis program (NIH image) at the distal metaphysis. The proximal aspect of the tibiae from these animals are also scanned by quantitative computed tomography. In general, ovariectomy of test animals will cause a significant reduction in femur density compared to intact, vehicle treated controls.

## C#C[C@]1(O)CC[C@H]2[C@@H]3CCc4cc(O)ccc4[C@H]3CC[C@@]21C [EE2, 17α-ethynyl estradiol, reference compound]
[1]; Rattus norvegicus, po, 96 h, 0.1 mg/kg, daily for 4 days, read-out: Uterine Weight (% increase vs. OVX)
  change in vivo at 0.1 mg/kg: 86.3%
[1]; oral, EE2 at 0.1 mg/kg/day
  Uterine weight / uterine stimulation, result in words: exerted a stimulatory action on the uterus so that EE2 uterine weight was substantially greater than the uterine weight of ovariectomized test animals
[2]
  Uterine EPO (V. max): 116.4
[3]; Rattus norvegicus, po, 96 h, 0.1 mg/kg, daily for 4 days, read-out: Serum Cholesterol (% decrease vs. OVX)
  inhibition in vivo at 0.1 mg/kg: 81.4%
[3]; oral, EE2 at 0.1 mg/kg/day
  Serum cholesterol, result in words: caused a decrease in serum cholesterol
[4]
  Prevention of bone loss after ovariectomy, result in words: usually prevents this loss
